Compound: O=C(Nc1ccncc1)c1cc(C(=O)Nc2ccncc2)cc(C(=O)Nc2ccncc2)c1
- solubility (mole fraction) (in 2-butanone, 283.15 K): 0.00034
- solubility (mole fraction) (in 2-butanone, 293.15 K): 0.000455
- solubility (mole fraction) (in 2-butanone, 303.15 K): 0.000519
- solubility (mole fraction) (in 2-butanone, 313.15 K): 0.000577
- solubility (mole fraction) (in 2-butanone, 323.15 K): 0.000675
- solubility (mole fraction) (in acetone, 283.15 K): 6.66e-06
- solubility (mole fraction) (in acetone, 293.15 K): 1.54e-05
- solubility (mole fraction) (in acetone, 303.15 K): 1.86e-05
- solubility (mole fraction) (in acetone, 313.15 K): 2.5e-05
- solubility (mole fraction) (in acetone, 323.15 K): 3.64e-05
- solubility (mole fraction) (in acetonitrile, 283.15 K): 7.35e-05
- solubility (mole fraction) (in acetonitrile, 293.15 K): 9.53e-05
- solubility (mole fraction) (in acetonitrile, 303.15 K): 0.00012
- solubility (mole fraction) (in acetonitrile, 313.15 K): 0.000146
- solubility (mole fraction) (in acetonitrile, 323.15 K): 0.000183
- solubility (mole fraction) (in dichloromethane, 283.15 K): 3.08e-05
- solubility (mole fraction) (in dichloromethane, 288.15 K): 4.23e-05
- solubility (mole fraction) (in dichloromethane, 293.15 K): 5.41e-05
- solubility (mole fraction) (in dichloromethane, 298.15 K): 6e-05
- solubility (mole fraction) (in dichloromethane, 303.15 K): 6.77e-05
- solubility (mole fraction) (in ethanol, 283.15 K): 4.73e-05
- solubility (mole fraction) (in ethanol, 293.15 K): 6.07e-05
- solubility (mole fraction) (in ethanol, 303.15 K): 7.59e-05
- solubility (mole fraction) (in ethanol, 313.15 K): 8.97e-05
- solubility (mole fraction) (in ethanol, 323.15 K): 0.000104
- solubility (mole fraction) (in ethyl acetate, 283.15 K): 0.000114
- solubility (mole fraction) (in ethyl acetate, 293.15 K): 0.000137
- solubility (mole fraction) (in ethyl acetate, 303.15 K): 0.000153
- solubility (mole fraction) (in ethyl acetate, 313.15 K): 0.000178
- solubility (mole fraction) (in ethyl acetate, 323.15 K): 0.000196
- solubility (mole fraction) (in isopropanol, 283.15 K): 0.000265
- solubility (mole fraction) (in isopropanol, 293.15 K): 0.000302
- solubility (mole fraction) (in isopropanol, 303.15 K): 0.000355
- solubility (mole fraction) (in isopropanol, 313.15 K): 0.000405
- solubility (mole fraction) (in isopropanol, 323.15 K): 0.000431
- solubility (mole fraction) (in methanol, 283.15 K): 5.21e-05
- solubility (mole fraction) (in methanol, 293.15 K): 6.76e-05
- solubility (mole fraction) (in methanol, 303.15 K): 9.65e-05
- solubility (mole fraction) (in methanol, 313.15 K): 0.00013
- solubility (mole fraction) (in methanol, 323.15 K): 0.000163
- solubility (mole fraction) (in n-butanol, 283.15 K): 0.000156
- solubility (mole fraction) (in n-butanol, 293.15 K): 0.0002
- solubility (mole fraction) (in n-butanol, 303.15 K): 0.000235
- solubility (mole fraction) (in n-butanol, 313.15 K): 0.000297
- solubility (mole fraction) (in n-butanol, 323.15 K): 0.000371
- solubility (mole fraction) (in n-hexane, 283.15 K): 1.15e-05
- solubility (mole fraction) (in n-hexane, 293.15 K): 2.45e-05
- solubility (mole fraction) (in n-hexane, 303.15 K): 4.03e-05
- solubility (mole fraction) (in n-hexane, 313.15 K): 5.54e-05
- solubility (mole fraction) (in n-hexane, 323.15 K): 6.95e-05
- solubility (mole fraction) (in n-propanol, 283.15 K): 0.000217
- solubility (mole fraction) (in n-propanol, 293.15 K): 0.000244
- solubility (mole fraction) (in n-propanol, 303.15 K): 0.000255
- solubility (mole fraction) (in n-propanol, 313.15 K): 0.000277
- solubility (mole fraction) (in n-propanol, 323.15 K): 0.00029
- solubility (mole fraction) (in water, 283.15 K): 4.65e-06
- solubility (mole fraction) (in water, 293.15 K): 5.71e-06
- solubility (mole fraction) (in water, 303.15 K): 7.83e-06
- solubility (mole fraction) (in water, 313.15 K): 8.34e-06
- solubility (mole fraction) (in water, 323.15 K): 1.6e-05
